In patent US10695322B2 (priority 2016, dated 2020):
Like-named read-outs stand apart in the source and are kept apart here.

Key:
[1] = target: LdtMab1, wild-type (MAB_3165c, orthologue of LdtMt1) (Mycobacteroides abscessus, UniProt B1MDC1); assay: biochemical; type: binding, Mycobacterium abscessus; conditions: Figure 6; ITC, wt, protein 150 μM, ligand 2 mM, pH 8.0, 24° C.
[2] = target: T1, LdtMt2, wild-type (L,D-transpeptidase of M. tuberculosis; fragment without N-terminal transmembrane domain, N-terminal His6, TEV-cleavable) (Mycobacterium tuberculosis, UniProt I6Y9J2); assay: biochemical; type: binding
T1 construct: Fragments excluding the putative transmembrane domain were cloned, expressed and purified; His6 (TEV-cleavable) (N); made in house; host or cells: E. coli BL21(DE3)
T1 sequence (I6Y9J2 56-408 limits assumed): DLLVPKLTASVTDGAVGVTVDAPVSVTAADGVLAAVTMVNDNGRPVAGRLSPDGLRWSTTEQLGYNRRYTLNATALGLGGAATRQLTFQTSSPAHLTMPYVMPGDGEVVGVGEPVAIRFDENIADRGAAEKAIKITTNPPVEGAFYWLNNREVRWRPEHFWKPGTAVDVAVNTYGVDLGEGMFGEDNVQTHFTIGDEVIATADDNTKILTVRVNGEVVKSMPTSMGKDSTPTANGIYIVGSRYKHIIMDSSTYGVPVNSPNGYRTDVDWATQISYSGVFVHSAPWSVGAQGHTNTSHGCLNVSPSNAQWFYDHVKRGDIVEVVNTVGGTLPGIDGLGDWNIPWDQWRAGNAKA

[3] = target: T2, LdtMab1 (Mycobacteroides abscessus, UniProt B1MDC1); assay: UPLC-MS analysis of protein-drug adducts, LdtMab1; type: binding, M. abscessus
T2 sequence (B1MDC1 entry or part of it): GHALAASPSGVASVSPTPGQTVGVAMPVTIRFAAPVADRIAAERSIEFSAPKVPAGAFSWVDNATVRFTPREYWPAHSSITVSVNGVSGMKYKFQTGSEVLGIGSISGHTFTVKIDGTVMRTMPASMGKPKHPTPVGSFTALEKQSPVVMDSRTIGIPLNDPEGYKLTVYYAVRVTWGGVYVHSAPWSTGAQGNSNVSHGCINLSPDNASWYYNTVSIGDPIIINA

[4] = test system: LdtPa; assay: UPLC-MS analysis of protein-drug adducts, LdtPa; type: binding, P. aeruginosa
[5] = test system: LdtKp; assay: UPLC-MS analysis of protein-drug adducts, LdtKp; type: binding, K. pneumoniae
[6] = test system: LdtMab2; assay: UPLC-MS analysis of protein-drug adducts, LdtMab2; type: binding, M. abscessus; conditions: for reaction and covalent adduct formation: evolved carbapenem alone
[7] = test system: LdtCl; assay: UPLC-MS analysis of protein-drug adducts, LdtCl; type: binding, E. cloacae; conditions: for reaction and covalent adduct formation: evolved carbapenem alone
Description: Ultra-performance liquid chromatography-high resolution mass spectrometry (UPLC-MS) with a Waters Acquity H-Class system utilizing a Waters Acquity BEH-300 UPLC column packed with a C4 stationary phase (2.1×50 mm, 1.7 μm) in conjunction with HRMS analysis by a Waters Xero-G2 quadropole-TOF electrospray mass spectrometer was used to detect and analyze protein-drug adducts. Each enzyme (2 μM) in 25 mM Tris buffer, pH 8, was incubated in the absence or presence of drugs (50 μM) at room temperature for 5 hours. Trifluoroacetic acid (0.1% final) was used to quench the reactions, samples were filtered through a 0.22 um filter and analyzed using UPLC-MS as follows: Mobile phase: 0-1 min 90% water+10% ACN+0.1% formic acid, 1-7.5 min gradient up to 20% water+80% ACN+0.1% formic acid, 7.5-8.4 min 20% water+80% ACN+0.1% formic acid, 8.4-8.5 min gradient up to 90% water+10% ACN+0.1% formic acid, 8.5-10 min 90% water+10% ACN+0.1% formic acid. Flow rate=0.3 mL min^−1. T=60° C.

[8] = target: T3, LdtMt2 (Mycobacterium tuberculosis, UniProt I6Y9J2); type: binding, M. tuberculosis; conditions: for Kd: 24° C., tris pH 8.0
T3 sequence (I6Y9J2 56-408 limits assumed): as the sequence (I6Y9J2 56-408 limits assumed) above

[9] = target: LdtMab2 (Mycobacteroides abscessus, UniProt B1MMQ4); assay: Isothermal titration calorimetry, binding to LdtMab2; design: species or system M. abscessus; conditions: ITC, 24° C., tris pH 8.0
Sequence of LdtMab2 (Mycobacteroides abscessus, UniProt B1MMQ4) (B1MMQ4 62-406 limits assumed): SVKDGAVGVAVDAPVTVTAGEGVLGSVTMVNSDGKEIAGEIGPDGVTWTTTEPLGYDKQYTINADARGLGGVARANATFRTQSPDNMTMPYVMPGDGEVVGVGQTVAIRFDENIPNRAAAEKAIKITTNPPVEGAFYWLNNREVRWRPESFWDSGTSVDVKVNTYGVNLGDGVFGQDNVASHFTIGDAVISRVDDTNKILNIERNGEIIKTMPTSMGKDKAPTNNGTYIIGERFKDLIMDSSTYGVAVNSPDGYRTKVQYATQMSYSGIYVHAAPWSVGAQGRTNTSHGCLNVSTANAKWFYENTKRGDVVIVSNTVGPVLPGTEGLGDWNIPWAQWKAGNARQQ

[10] = target: T3, LdtMt2; assay: biochemical; design: species or system M. tuberculosis; conditions: for kinact/KI: read-out: kinact/Kapp ratio
[11] = test system: M. tuberculosis, M. abscessus, A. baumannii, K. pneumoniae, E. cloacae, P. aeruginosa, E. faecalis and S. aureus; assay: Minimum inhibitory concentration (MIC90), broth dilution, panel of pathogens; type: cell-based; conditions: panel of tested pathogens
[12] = target: T4, LdtMt1 (Mycobacterium tuberculosis, UniProt O53638); assay: biochemical; type: binding, M. tuberculosis
T4 sequence (O53638 32-251 limits assumed): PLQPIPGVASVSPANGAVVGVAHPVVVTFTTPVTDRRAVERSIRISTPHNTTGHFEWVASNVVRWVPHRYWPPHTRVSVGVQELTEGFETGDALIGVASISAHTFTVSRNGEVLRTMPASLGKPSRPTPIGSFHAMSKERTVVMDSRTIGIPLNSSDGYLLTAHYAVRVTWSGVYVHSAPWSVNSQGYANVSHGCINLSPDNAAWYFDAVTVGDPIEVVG

[13] = target: T5, human DHP-1 (Homo sapiens, UniProt P16444); conditions: cited from earlier work
T5 sequence (P16444 17-385): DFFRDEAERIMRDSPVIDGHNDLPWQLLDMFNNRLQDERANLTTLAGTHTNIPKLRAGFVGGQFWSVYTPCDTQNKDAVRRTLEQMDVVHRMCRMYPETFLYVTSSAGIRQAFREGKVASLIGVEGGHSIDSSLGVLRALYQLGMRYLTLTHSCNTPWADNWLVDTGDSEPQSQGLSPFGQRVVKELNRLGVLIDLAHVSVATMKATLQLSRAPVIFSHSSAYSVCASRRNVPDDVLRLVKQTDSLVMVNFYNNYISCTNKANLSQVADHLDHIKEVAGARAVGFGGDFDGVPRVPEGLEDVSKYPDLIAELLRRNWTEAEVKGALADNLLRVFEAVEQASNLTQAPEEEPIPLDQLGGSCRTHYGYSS

[14] = test system: M. tuberculosis; type: in vivo, BALB/c mice; conditions: for gross pathology of lungs (tuberculous lesions): mouse, in vivo
[15] = target: T3, LdtMt2; type: binding, M. tuberculosis
[16] = test system: M. tuberculosis; conditions: oral gavage; recent report; cited from earlier work
[17] = target: T2, LdtMab1; assay: Isothermal titration calorimetry, binding to LdtMab1; conditions: ITC, 24° C., tris pH 8.0
[18] = target: T4, LdtMt1; type: binding, M. tuberculosis
[19] = test system: M. tuberculosis; conditions: mouse, in vivo; cited from earlier work
[20] = 10 μM LdtMt2, MES pH 6.5, 10° C.
[21] = 10 μM LdtMt2, MES pH 6.5, 10° C., read-out: kinact (converted)
[22] = competition: equimolar mixture of doripenem, biapenem, faropenem and tebipenem, within one minute
[23] = equimolar mixture of amoxicillin, cephalothin, aztreonam and faropenem

Sequence of LdtMab1, wild-type (MAB_3165c, orthologue of LdtMt1) (B1MDC1 21-248): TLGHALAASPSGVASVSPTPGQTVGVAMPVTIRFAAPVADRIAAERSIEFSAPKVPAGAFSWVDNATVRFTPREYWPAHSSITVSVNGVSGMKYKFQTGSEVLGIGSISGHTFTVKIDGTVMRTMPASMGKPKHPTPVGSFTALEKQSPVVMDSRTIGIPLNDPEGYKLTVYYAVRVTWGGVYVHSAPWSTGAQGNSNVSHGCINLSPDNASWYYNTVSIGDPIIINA

## CC1(C)S[C@@H]2[C@H](NC(=O)[C@H](N)c3ccc(O)cc3)C(=O)N2[C@H]1C(=O)O [Amoxicillin]
[1]
  Kd: 1290 µM

## CC(=O)OCC1=C(C(=O)O)N2C(=O)[C@@H](NC(=O)Cc3cccs3)[C@H]2SC1 [Cephalothin]
[2]
  Kd: 200 µM
[1]
  Kd: 30.3 µM

## COC(=O)CSC1=C(C(=O)[O-])N2C(=O)[C@H]([C@@H](C)O)[C@H]2[C@H]1C.[Na+] [T205, sodium (4R,5S,6S)-6-((R)-1-hydroxyethyl)-3-((2-methoxy-2-oxoethyl)thio)-4-methyl-7-oxo-1-azabicyclo[3.2.0]hept-2-ene-2 carboxylate]
[3]
  reaction and covalent adduct formation: reacted and formed covalent adducts
[2]
  Kd: 155 µM
[4]
  reaction and covalent adduct formation: reacted and formed covalent adducts
[5]
  reaction and covalent adduct formation: reacted and formed covalent adducts
[6]
  reaction and covalent adduct formation: did not react
[7]
  reaction and covalent adduct formation: reacted and formed covalent adducts

## CCCOC(=O)CSC1=C(C(=O)O)N2C(=O)[C@H]([C@@H](C)O)[C@H]2[C@H]1C [T206]
[3]
  reaction and covalent adduct formation: reacted and formed covalent adducts
[2]
  Kd: 2.8 µM
[8]; ITC
  Kd: low to sub μM range
[9]
  Kd: low to sub μM range
[4]
  reaction and covalent adduct formation: did not react
[5]
  reaction and covalent adduct formation: reacted and formed covalent adducts
[6]
  reaction and covalent adduct formation: did not react
[7]
  reaction and covalent adduct formation: reacted and formed covalent adducts

## C[C@@H](O)[C@H]1C(=O)N2C(C(=O)O)=C(SCC(=O)OC3CCCCC3)[C@H](C)[C@H]12 [T208]
[3]
  reaction and covalent adduct formation: reacted and formed covalent adducts
[2]
  Kd: 5.65 µM
[8]; ITC
  Kd: low to sub μM range
[9]
  Kd: low to sub μM range
[4]
  reaction and covalent adduct formation: reacted and formed covalent adducts
[10]; [20]
  Kapp: 4.8 ± 2.9 µM
[10]; [21]
  kinact: 0.045 s⁻¹
[5]
  reaction and covalent adduct formation: reacted and formed covalent adducts
[6]
  reaction and covalent adduct formation: did not react
[7]
  reaction and covalent adduct formation: reacted and formed covalent adducts

## CSC1=C(C(=O)O)N2C(=O)[C@H]([C@@H](C)O)[C@H]2[C@H]1C [T210]
[3]
  reaction and covalent adduct formation: reacted and formed covalent adducts
[9]
  Kd: low to sub μM range
[4]
  reaction and covalent adduct formation: reacted and formed covalent adducts
[10]; [20]
  Kapp: 20.8 ± 3.3 µM
[5]
  reaction and covalent adduct formation: reacted and formed covalent adducts
[6]
  reaction and covalent adduct formation: did not react
[7]
  reaction and covalent adduct formation: reacted and formed covalent adducts

## C[C@@H](O)[C@H]1C(=O)N2C(C(=O)O)=C(SCC(F)(F)F)[C@H](C)[C@H]12 [T221]
[11]
  minimum inhibitory concentration (MIC90) / growth inhibition: inhibit growth of all tested pathogens except P. aeruginosa

## C[C@@H](O)[C@H]1C(=O)N2C(C(=O)O)=C(SCc3ccccc3)[C@H](C)[C@H]12 [T222]
[11]
  minimum inhibitory concentration (MIC90) / growth inhibition: inhibit growth of all tested pathogens except P. aeruginosa

## C[C@@H](O)[C@H]1C(=O)N2C(C(=O)O)=C(SCCc3ccccc3)[C@H](C)[C@H]12 [T223]
[11]
  minimum inhibitory concentration (MIC90) / growth inhibition: inhibit growth of all tested pathogens except P. aeruginosa

## C[C@@H](O)[C@H]1C(=O)N2C(C(=O)O)=C(Sc3c[nH]c4ccccc34)[C@H](C)[C@H]12 [T224]
[11]
  minimum inhibitory concentration (MIC90) / growth inhibition: inhibit growth of all tested pathogens except P. aeruginosa

## CC1(C)S[C@@H]2[C@H](NC(=O)[C@H](N)c3ccc(O)cc3)C(=O)N2[C@H]1C(=O)O [amoxicillin]
[8]; ITC
  heat of association: could not be detected
[12]; ITC
  heat of association: could not be detected

## C[C@H]1[C@H](NC(=O)/C(=N\OC(C)(C)C(=O)O)c2csc(N)n2)C(=O)N1S(=O)(=O)O [aztreonam]
[8]; ITC
  heat of association: could not be detected
[12]; ITC
  heat of association: could not be detected

## C[C@@H](O)[C@H]1C(=O)N2C(C(=O)[O-])=C(SC3Cn4cnc[n+]4C3)[C@H](C)[C@H]12 (stereo partly shown) [biapenem]
[13]
  metabolism by human DHP-1: not readily metabolized
[10]; [20]
  Kapp: 15.3 ± 2.5 µM
[10]; [21]
  kinact: 0.06 s⁻¹
[10]
  kinact/KI: 3830 M⁻¹ s⁻¹
[14]
  gross pathology of lungs (tuberculous lesions): no tuberculous lesions
[14]; three weeks of treatment
  M. tuberculosis burden in the lungs: no less effective than rifampicin
  bactericidal activity in vivo: lacked bactericidal activity
[15]; UPLC-MS
  mass of stable adduct with wild-type LdtMt2: +138 Da

## CC(=O)OCC1=C(C(=O)O)N2C(=O)[C@@H](NC(=O)Cc3cccs3)[C@H]2SC1 [cephalothin]
[8]
  heat of association: could not be detected
[12]
  heat of association: could not be detected

## C[C@@H](O)[C@H]1C(=O)N2C(C(=O)O)=C(S[C@@H]3CN[C@H](CNS(N)(=O)=O)C3)[C@H](C)[C@H]12 [doripenem]
[10]; pH 6.5
  Kapp: 32.6 ± 11.3 µM
  kinact: 0.122 s⁻¹
[10]
  kinact/KI: 3670 M⁻¹ s⁻¹
[15]
  mass of stable adduct with wild-type LdtMt2: 123 Da

## Cc1oc(=O)oc1COC(=O)C1=C([C@H]2CCCO2)S[C@@H]2[C@@H]([C@@H](C)O)C(=O)N12 [faropenem medoxomil]
[16]
  M. tuberculosis burden in the lungs: ineffective

## C[C@@H](O)[C@H]1C(=O)N2C(C(=O)O)=C([C@H]3CCCO3)S[C@H]12 [faropenem]
[17]
  Kd: 0.16 µM
[3]
  adducts detected in competition: faropenem adducts gave the only masses we could detect
  proteins reacted exclusively with the drug: 100%
[9]; read-out: Kd
  Kd: 6.25 µM
[10]; [20]
  Kapp: 49.2 ± 11.9 µM
[5]
  adducts detected in competition: faropenem adducts gave the only masses we could detect
  proteins reacted exclusively with the drug: 100%
[18]
  adducts detected in competition: faropenem adducts gave the only masses we could detect
  proteins reacted exclusively with the drug: 100%
[18]; covalently attached to C226
  mass of adduct with LdtMt1: 86 Da
[6]; [22]
  proteins reacted exclusively with the drug: 100%
[6]; [23]
  adducts detected in competition: faropenem adducts gave the only masses we could detect
[12]; ITC, 24° C., tris pH 8.0, single binding modality
  Kd: 3.98 µM
[7]; [22]
  proteins reacted exclusively with the drug: 100%
[7]; [23]
  adducts detected in competition: faropenem adducts gave the only masses we could detect
[14]
  gross pathology of lungs (tuberculous lesions): developed tuberculous lesions in the lungs but their pathology and the bacterial burden were lower compared to untreated mice
[14]; three weeks of treatment
  M. tuberculosis burden in the lungs: lower compared to untreated mice
[14]; used alone
  survival / overall health of infected mice: prolonged the life of mice
[15]
  adducts detected in competition: faropenem adducts gave the only masses we could detect
  proteins reacted exclusively with the drug: 100%
[15]; UPLC-MS
  mass of stable adduct with wild-type LdtMt2: +86 Da

## C[C@@H](O)[C@H]1C(=O)N2C(C(=O)O)=C(S[C@@H]3CN[C@H](C(=O)N(C)C)C3)[C@H](C)[C@H]12 [meropenem]
[19]
  activity in macrophages and mice infected with M. tuberculosis: limited activity
